Values after ≈ are worked out from the molar mass of the structure shown. Where two headings read alike, the source gives them in different places.
Experiments:
CYP2B6 = target: T1, CYP2B6 (Homo sapiens, UniProt P20813); test: CYP450 reaction phenotyping in Supersomes, CYP2B6; type: in vitro ADME
T1 construct: purchased
Description: (§1) In Vitro CYP450 Reaction Phenotyping Study in Supersomes™ Over-Expressing Human CYP Enzymes
(§2) The CYPP450 enzymes involved in the Phase I metabolism of Compound 1 Form A were investigated in vitro. Compound 1 Form A was metabolized by CYP1A2, CYP2D6 and CYP3A4 and with T1/2 values of 64, 14, and 176 min, respectively, and CLint of 0.261, 0.984 and 0.0786 μL/min/pmol CYP, respectively. No evidence of Compound 1 metabolism by CYP2B6, CYP2C8, CYP2C9 and CYP2C19 was observed.

[1] = target: aryl hydrocarbon receptor (AhR) (Rattus norvegicus, UniProt P41738); test: AhR receptor activation, rat; type: in vitro ADME; conditions: at 30 μM
aryl hydrocarbon receptor (AhR), sequence (P41738 10-853): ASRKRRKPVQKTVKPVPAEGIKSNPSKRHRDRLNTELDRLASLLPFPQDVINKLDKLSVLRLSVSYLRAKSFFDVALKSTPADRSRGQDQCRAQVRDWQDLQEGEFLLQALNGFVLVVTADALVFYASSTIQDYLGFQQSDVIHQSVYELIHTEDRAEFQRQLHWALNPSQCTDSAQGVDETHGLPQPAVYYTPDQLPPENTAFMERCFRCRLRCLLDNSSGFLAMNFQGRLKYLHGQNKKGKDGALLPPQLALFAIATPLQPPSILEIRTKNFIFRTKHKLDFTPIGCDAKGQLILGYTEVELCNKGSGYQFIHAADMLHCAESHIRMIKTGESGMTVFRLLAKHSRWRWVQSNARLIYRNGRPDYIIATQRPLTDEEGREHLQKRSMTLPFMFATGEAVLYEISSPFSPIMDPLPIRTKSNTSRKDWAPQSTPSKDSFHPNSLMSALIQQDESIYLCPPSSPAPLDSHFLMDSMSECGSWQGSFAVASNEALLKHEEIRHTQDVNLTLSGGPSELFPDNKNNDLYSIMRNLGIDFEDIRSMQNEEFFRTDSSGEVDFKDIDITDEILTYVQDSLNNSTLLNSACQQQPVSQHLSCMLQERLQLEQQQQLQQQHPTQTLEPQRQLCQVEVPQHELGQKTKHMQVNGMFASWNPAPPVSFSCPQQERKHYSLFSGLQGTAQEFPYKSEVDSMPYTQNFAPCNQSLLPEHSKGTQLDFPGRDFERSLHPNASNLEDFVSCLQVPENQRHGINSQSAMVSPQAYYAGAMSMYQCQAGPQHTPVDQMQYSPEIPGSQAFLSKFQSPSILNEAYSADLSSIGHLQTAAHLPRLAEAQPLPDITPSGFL
Excerpt: The objective of this study was to determine the human and rat pregnane X receptor (PXR) and human and rat aryl hydrocarbon receptor (AhR) receptor activation potential of Compound 1 Form A. The activation of PXR is a marker for induction of CYP3A4/5 and […] and the activation of AhR is a marker for induction of CYP1A.

dKI mice = test: Immunohistochemical staining of SV2A and PSD-95 in APPNLGF/MAPT (dKI) mouse model; type: in vivo; conditions: 3.75 mg/kg q12 oral, at least 28 days
Description: The objective of this study was to assess synaptic density of control and Amyloid Precursor Protein carrying NL-G-F mutations/Microtubule-associated protein tau (APP^NLGF/MAPT) (dKI—double knock-in) mice before and after treatment with Compound 1. Vehicle (95% PEG-400/5% Solutol) or Compound 1 at 7.5 mg/kg/day (3.75 mg/kg q12) was given to control and dKI mice for at least 28 days by oral administration.
Reduced synaptic density in dKI samples relative to controls was confirmed by immunohistochemical staining of pre- and post-synaptic markers (SV2A and PSD-95) in hippocampal and cortical sections.

[2] = Intravenous and oral cross-over pharmacokinetic study; type: in vivo, male Sprague Dawley rats; conditions: male rats, IV 1 mg/kg
Description: This study assessed the PK of Compound 1 AH Form A in male Sprague Dawley rats (3/group) following single IV (intravenous) administration at 1 mg/kg as a solution in 2.5% N-Methyl-2-pyrrolidone (NMP)+1% Solutol HS15 in water or a PO (oral) administration of 3 formulations at 5 and 50 mg/kg, administered to the same animals in a cross over with 7 days recovery.
Serial plasma samples were collected at intervals to 24 h post dose and the level of Compound 1 determined in each plasma sample by LC-MS/MS.

[3] = Approximate solubility (visual) in solvents; type: physicochemical; conditions: thermodynamic from solid, read-out: Approx. solubility
Description: The polymorph study protocol involved the use of a selection of solvents in which the solubility of Compound 1 was initially evaluated. Four typologies of experiments were then set up: temperature cycling, evaporative, long-term slurries and vapor diffusion. The number of solvents, solvent volumes and amount of material to be used in each experiment was based on solubility values and the kind of experiment.
Approximate solubility (visual) of Compound 1 was assessed in a list of solvents selected based on class diversity including solvent/water mixtures (Table 5). Compound 1 (5.0±0.2 mg) was weighted in vials and known aliquots of solvent were progressively added at 20° C. until a clear solution was visually observed; magnetic stirring was applied. The final solutions were stirred at room temperature overnight to evaluate any re-crystallization phenomena.

in vivo = test: in vivo
Description: Six cohorts of 6 participants each received a single oral dose of Compound 1 in the fasted state at the following dose levels: 10, 40, 70, 100, 150, and 200 mg and then were followed for 7 days; the starting dose of 10 mg was <10% of the 140 mg human equivalent dose (HED) of the rat NOAEL in the GLP 28-day rat study of 15 mg/kg.

CYP2C19 = CYP2C19 (Homo sapiens, UniProt P33261); test: CYP450 reaction phenotyping in Supersomes, CYP2C19; type: in vitro ADME
CYP2C19, sequence (P33261 whole entry): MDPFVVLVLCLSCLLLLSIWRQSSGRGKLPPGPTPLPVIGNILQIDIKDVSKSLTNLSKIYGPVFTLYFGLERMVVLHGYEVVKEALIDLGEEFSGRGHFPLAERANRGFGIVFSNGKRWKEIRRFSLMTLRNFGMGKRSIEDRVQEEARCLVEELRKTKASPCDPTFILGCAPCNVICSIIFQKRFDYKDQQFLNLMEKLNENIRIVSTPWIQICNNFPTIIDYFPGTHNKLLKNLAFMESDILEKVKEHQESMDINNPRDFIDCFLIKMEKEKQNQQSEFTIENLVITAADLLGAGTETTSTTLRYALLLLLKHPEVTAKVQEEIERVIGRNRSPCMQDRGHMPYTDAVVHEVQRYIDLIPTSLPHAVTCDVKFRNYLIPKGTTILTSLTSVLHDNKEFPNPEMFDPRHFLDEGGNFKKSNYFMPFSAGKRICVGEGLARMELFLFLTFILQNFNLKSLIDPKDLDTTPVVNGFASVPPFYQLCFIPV
Description: as §1, §2

mGluR5 = target: T2, mGluR5 (Mus musculus, UniProt Q3UVX5); test: [18F]FPEB PET displacement, receptor occupancy; type: in vivo, mice; conditions: for receptor occupancy at 3.75 mg/kg: mouse
T2 construct: from tissue; host or cells: brain of living mice
T2 sequence (Q3UVX5 19-1203): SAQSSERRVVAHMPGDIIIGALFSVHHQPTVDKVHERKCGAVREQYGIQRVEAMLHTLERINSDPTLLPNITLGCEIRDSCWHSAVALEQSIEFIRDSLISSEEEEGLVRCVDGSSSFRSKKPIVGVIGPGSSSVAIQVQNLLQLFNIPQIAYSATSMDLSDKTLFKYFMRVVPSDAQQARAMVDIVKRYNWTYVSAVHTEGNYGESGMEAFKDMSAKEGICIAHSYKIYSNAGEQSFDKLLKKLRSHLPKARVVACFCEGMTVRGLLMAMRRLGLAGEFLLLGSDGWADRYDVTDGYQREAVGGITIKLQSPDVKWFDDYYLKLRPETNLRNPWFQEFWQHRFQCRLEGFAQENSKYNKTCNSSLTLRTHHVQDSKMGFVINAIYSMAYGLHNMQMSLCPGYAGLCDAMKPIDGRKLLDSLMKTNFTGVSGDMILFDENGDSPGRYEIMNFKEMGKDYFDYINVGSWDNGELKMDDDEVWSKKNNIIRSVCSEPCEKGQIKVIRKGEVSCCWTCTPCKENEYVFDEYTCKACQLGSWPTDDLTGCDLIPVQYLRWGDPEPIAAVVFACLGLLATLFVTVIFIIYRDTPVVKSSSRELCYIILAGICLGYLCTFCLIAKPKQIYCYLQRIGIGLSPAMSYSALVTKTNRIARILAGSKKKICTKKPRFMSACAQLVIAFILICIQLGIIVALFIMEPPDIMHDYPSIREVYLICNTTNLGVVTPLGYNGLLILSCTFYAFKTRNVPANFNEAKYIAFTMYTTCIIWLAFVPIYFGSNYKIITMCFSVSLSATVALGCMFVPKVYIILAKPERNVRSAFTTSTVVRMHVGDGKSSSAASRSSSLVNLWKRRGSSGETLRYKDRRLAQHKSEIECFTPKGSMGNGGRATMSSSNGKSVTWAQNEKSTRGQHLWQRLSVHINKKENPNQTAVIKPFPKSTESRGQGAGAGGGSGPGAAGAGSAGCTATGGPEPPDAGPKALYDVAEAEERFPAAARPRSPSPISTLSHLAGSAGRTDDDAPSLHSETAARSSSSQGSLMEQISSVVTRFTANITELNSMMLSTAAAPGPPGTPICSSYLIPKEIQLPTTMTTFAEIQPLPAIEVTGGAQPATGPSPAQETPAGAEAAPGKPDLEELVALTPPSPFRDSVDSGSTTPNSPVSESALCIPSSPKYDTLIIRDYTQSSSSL
Description: A mGluR5 PET ligand, [^18F]FPEB, was used to assess receptor occupancy in mice. Mice were dosed orally twice a day with different doses of Compound 1. The available mGluR5 sites in brain were assessed in anesthetized mice both at peak 1 h after a single dose, and at trough after 7 days of twice daily (b.i.d.) oral dosing. The 3.75 mg/kg b.i.d. dose maintains >90% receptor occupancy throughout the dosing period. […] FPEB into the brain of mice. Displacement studies were conducted at expected trough levels and conducted at three dose levels: 0.42, 1.25 and 3.75 mg/kg. The 3.75 mg/kg dose was able to achieve >90% receptor occupancy at trough.

CYP2C9 = target: T3, CYP2C9 (Homo sapiens, UniProt P11712); test: CYP450 reaction phenotyping in Supersomes, CYP2C9; type: in vitro ADME
T3 construct: purchased
T3 sequence (P11712 whole entry): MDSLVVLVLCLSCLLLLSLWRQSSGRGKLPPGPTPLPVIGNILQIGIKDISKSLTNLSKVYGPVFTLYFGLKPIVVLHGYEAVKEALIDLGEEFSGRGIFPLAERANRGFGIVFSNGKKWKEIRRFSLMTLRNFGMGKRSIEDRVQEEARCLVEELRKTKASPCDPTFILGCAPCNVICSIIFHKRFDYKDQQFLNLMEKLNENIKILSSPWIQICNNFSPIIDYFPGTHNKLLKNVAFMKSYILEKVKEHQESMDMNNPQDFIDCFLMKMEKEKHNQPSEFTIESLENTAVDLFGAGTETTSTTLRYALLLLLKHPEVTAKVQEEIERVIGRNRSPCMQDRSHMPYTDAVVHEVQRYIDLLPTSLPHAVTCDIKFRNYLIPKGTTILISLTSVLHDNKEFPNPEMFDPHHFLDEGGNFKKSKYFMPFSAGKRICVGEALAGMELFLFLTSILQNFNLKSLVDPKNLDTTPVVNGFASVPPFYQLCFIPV
Description: as §1, §2

T1 sequence (P20813 whole entry): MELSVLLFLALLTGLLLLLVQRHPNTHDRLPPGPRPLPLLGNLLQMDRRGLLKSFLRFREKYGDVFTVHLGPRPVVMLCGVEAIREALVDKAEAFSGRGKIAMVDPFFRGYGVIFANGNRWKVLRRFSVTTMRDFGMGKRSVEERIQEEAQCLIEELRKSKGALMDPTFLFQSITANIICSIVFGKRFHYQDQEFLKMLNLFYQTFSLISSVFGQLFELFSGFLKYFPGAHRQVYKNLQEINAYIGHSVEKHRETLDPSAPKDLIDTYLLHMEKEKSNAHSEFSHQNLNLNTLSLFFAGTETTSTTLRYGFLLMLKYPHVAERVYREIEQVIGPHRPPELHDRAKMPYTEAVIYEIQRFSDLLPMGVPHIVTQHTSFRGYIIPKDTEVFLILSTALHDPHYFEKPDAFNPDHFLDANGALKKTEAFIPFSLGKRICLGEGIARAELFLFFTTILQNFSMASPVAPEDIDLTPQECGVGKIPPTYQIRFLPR

Question: With `O=C1N[C@H](c2cncc(C#Cc3ccccc3)c2)[C@@H](c2ccccc2Cl)O1` [Compound 1, (4R,5R)-5-(2-chlorophenyl)-4-(5-(phenylethynyl)pyridin-3-yl)oxazolidin-2-one] as the compound, how does the “metabolism by CYP2B6” value (CYP2B6) read?
Answer: Its value is “No evidence”.

Question: What about the “AhR activation, % of the positive control” value [1] of the same compound?
Answer: The value was 0.946%.

Question: And the “mean maximum fold activation of AhR” value [1]?
Answer: Its value is 1.42 fold.

Question: What about the “SV2A and PSD-95 staining in the cerebral cortex, relative to vehicle” value (dKI mice) of the same compound?
Answer: The value was “significant increases”.

Question: What about the “SV2A staining in hippocampus, relative to vehicle” value (dKI mice) of the same compound?
Answer: The value was “significant increases”.

Question: And the clearance ([2]; Sprague Dawley, rat, plasma)?
Answer: Its clearance is 5.98 mL/min/kg.

Question: What about the half-life ([2]; Sprague Dawley, rat, plasma) of the same compound?
Answer: Its half-life is 4.49 h.

Question: And the Cmax ([2]; Sprague Dawley, rat, plasma, solution in 2.5% NMP + 1% Solutol HS15 in water)?
Answer: Its Cmax is 595 ng/mL.

Question: And the Vd ([2]; Sprague Dawley, rat, plasma, read-out: Vdss)?
Answer: Its Vd is 2.23 L/kg.

Question: And the “AUCinf (in AUClast column, footnote 1)” value [2]?
Answer: The value was 2910^1 ng · h/mL.

Question: What about the solubility ([3]; aqueous with cosolvent or surfactant or cyclodextrin, 2-propanol/water 50:50, 20° C.) of the same compound?
Answer: Its solubility is about 5 mg/mL (≈ 13.3 mM).

Question: And the solubility ([3]; aqueous with cosolvent or surfactant or cyclodextrin, acetone/water 50:50, 20° C.)?
Answer: The solubility was about 5 mg/mL (≈ 13.3 mM).

Question: What about the solubility ([3]; organic solvent or mixture, 2-butanol, 20° C.) of the same compound?
Answer: The solubility was 50 to 100 mg/mL (≈ 133 to 267 mM).

Question: And the solubility ([3]; organic solvent or mixture, 2-methyltetrahydrofuran (MeTHF), 20° C.)?
Answer: Its solubility is over 100 mg/mL.

Question: And the solubility ([3]; organic solvent or mixture, 2-propanol/water 80:20, 20° C.)?
Answer: Its solubility is 50 to 100 mg/mL (≈ 133 to 267 mM).

Question: And the solubility ([3]; organic solvent or mixture, 2-propanol/water 90:10, 20° C.)?
Answer: The solubility was 30 to 50 mg/mL (≈ 80 to 133 mM).

Question: What about the solubility ([3]; organic solvent or mixture, acetone, 20° C.) of the same compound?
Answer: The solubility was over 100 mg/mL.

Question: What about the solubility ([3]; organic solvent or mixture, acetone/water 90:10, 20° C.) of the same compound?
Answer: The solubility was over 100 mg/mL.

Question: And the solubility ([3]; organic solvent or mixture, acetonitrile, 20° C.)?
Answer: Its solubility is 50 to 100 mg/mL (≈ 133 to 267 mM).

Question: What about the solubility ([3]; organic solvent or mixture, benzonitrile, 20° C.) of the same compound?
Answer: Its solubility is over 100 mg/mL.

Question: And the solubility ([3]; organic solvent or mixture, dichloromethane, 20° C.)?
Answer: The solubility was over 100 mg/mL.

Question: What about the solubility ([3]; organic solvent or mixture, ethanol, 20° C.) of the same compound?
Answer: The solubility was over 100 mg/mL.

Question: What about the solubility ([3]; organic solvent or mixture, ethyl acetate, 20° C.) of the same compound?
Answer: The solubility was over 100 mg/mL.

Question: And the solubility ([3]; organic solvent or mixture, heptane, 20° C.)?
Answer: Its solubility is under 2 mg/mL.

Question: What about the solubility ([3]; organic solvent or mixture, i-propyl acetate, 20° C.) of the same compound?
Answer: Its solubility is 50 to 100 mg/mL (≈ 133 to 267 mM).

Question: And the solubility ([3]; organic solvent or mixture, isopropyl alcohol (IPA), 20° C.)?
Answer: Its solubility is 25 to 30 mg/mL (≈ 66.7 to 80 mM).

Question: And the solubility ([3]; organic solvent or mixture, methyl ethyl ketone (MEK), 20° C.)?
Answer: The solubility was over 100 mg/mL.

Question: And the solubility ([3]; organic solvent or mixture, methyl isobutyl ketone (MIK), 20° C.)?
Answer: Its solubility is over 100 mg/mL.

Question: And the solubility ([3]; organic solvent or mixture, methyl tert-butyl ether (MTBE), 20° C.)?
Answer: Its solubility is 17 to 25 mg/mL (≈ 45.4 to 66.7 mM).

Question: What about the solubility ([3]; organic solvent or mixture, t-Butyl acetate, 20° C.) of the same compound?
Answer: The solubility was 25 to 30 mg/mL (≈ 66.7 to 80 mM).

Question: What about the solubility ([3]; organic solvent or mixture, tetrahydrofuran (THF), 20° C.) of the same compound?
Answer: The solubility was over 100 mg/mL.

Question: And the solubility ([3]; organic solvent or mixture, toluene, 20° C.)?
Answer: The solubility was 25 to 30 mg/mL (≈ 66.7 to 80 mM).

Question: What about the solubility ([3]; water, 20° C.) of the same compound?
Answer: Its solubility is under 2 mg/mL.

Question: What about the “human equivalent dose (HED) of the rat NOAEL” value (in vivo) of the same compound?
Answer: Its value is 140 mg.

Question: What about the NOAEL at 28 days (in vivo; rat) of the same compound?
Answer: Its NOAEL at 28 days is 15 mg/kg.

Question: What about the “metabolism by CYP2C19” value (CYP2C19) of the same compound?
Answer: The value was “No evidence”.

Question: What about the “free drug above the Ki” value (mGluR5; mice, 3.75 mg/kg b.i.d.) of the same compound?
Answer: The value was 25 fold.

Question: What about the “free trough drug level” value (mGluR5; mice, 3.75 mg/kg b.i.d. oral) of the same compound?
Answer: The value was 15 nM.

Question: And the receptor occupancy at 3.75 mg/kg (mGluR5; mice, 3.75 mg/kg b.i.d. oral, read-out: receptor occupancy throughout the dosing period)?
Answer: Its receptor occupancy at 3.75 mg/kg is over 90%.

Question: And the receptor occupancy at 3.75 mg/kg (mGluR5; mice, 3.75 mg/kg dose, oral, read-out: receptor occupancy at trough)?
Answer: The receptor occupancy at 3.75 mg/kg was over 90%.

Question: And the “doses occupying brain mGluR5 sites below adverse effect levels” value (mGluR5; oral, rodent and non-human primate)?
Answer: The value was 250 fold.

Question: And the “metabolism by CYP2C9” value (CYP2C9)?
Answer: Its value is “No evidence”.

From patent US20250230149A1, “MGLUR5 MODULATING COMPOUNDS, COMPOSITIONS, AND METHODS OF USE” (Allyx Therapeutics, Inc., priority 2022, published 2025)
